Columns and labels:
[1] = biological target: T1, human TLR9 (Homo sapiens, UniProt Q9NR96); experiment: TLR9 inhibition reporter assay (HEK-Blue SEAP); assay type: cell-based; conditions: HEK-Blue cells overexpressing human TLR9, ODN2006 5 nM, 22 hour incubation
T1 construct: host or cells: HEK-Blue cells
T1 sequence (Q9NR96 26-1032): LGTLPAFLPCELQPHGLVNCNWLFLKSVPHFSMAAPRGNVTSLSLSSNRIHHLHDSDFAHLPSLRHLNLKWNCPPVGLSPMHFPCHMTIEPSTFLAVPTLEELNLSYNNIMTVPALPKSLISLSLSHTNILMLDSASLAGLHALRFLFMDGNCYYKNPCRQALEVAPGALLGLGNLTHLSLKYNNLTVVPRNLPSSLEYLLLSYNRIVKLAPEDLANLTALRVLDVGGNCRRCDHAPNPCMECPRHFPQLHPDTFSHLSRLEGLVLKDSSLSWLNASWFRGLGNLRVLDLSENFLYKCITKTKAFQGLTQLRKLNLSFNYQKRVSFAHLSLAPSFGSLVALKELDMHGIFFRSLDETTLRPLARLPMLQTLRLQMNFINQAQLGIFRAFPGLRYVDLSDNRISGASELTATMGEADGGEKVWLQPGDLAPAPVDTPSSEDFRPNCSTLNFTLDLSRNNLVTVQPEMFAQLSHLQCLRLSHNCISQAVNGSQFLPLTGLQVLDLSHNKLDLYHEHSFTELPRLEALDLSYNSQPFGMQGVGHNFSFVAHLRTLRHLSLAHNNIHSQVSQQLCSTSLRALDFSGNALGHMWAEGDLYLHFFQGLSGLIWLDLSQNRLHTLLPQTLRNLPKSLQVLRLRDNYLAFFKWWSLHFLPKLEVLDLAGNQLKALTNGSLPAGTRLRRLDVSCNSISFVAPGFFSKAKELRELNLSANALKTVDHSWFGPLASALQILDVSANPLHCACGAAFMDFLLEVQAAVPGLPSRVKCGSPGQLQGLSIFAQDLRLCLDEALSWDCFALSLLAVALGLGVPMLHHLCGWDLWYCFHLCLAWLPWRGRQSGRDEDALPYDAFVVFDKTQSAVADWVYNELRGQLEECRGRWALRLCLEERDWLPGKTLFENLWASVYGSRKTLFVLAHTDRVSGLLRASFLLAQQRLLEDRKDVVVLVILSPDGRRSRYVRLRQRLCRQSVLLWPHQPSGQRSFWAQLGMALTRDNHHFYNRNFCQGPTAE
Protocol: (§1) TLR7/8/9 Inhibition Reporter Assays
(§2) HEK-Blue™-cells (Invivogen) overexpressing human TLR7, TLR8 or TLR9 receptors were used for screening inhibitors of these receptors using an inducible SEAP (secreted embryonic alkaline phosphatase) reporter gene under the control of the IFN-β minimal promoter fused to five NF-κB and AP-1-binding sites. Briefly, cells are seeded into Greiner 384 well plates (15000 cells per well for TLR7, 20,000 for TLR8 and 25,000 for TLR9) and then treated with test compounds in DMSO to yield a final dose response concentration range of 0.05 nM-50 μM. After a 30 minute compound pre-treatment at room temperature, the cells are then stimulated with a TLR7 ligand (gardiquimod at a final concentration of 7.5 μM), TLR8 ligand (R848 at a final concentration of 15.9 μM) or TLR9 ligand (ODN2006 at a final concentration of 5 nM) to activate NF-κB and AP-1 which induce the production of SEAP. After a 22 hour incubation at 37° C., 5% CO2, SEAP levels are determined with the addition of HEK-Blue™ Detection reagent (Invivogen), a cell culture medium that allows for detection of SEAP, according to manufacturer's specifications. The percent inhibition is determined as the % reduction in the HEK-Blue signal present in wells treated with agonist plus DMSO alone compared to wells treated with a known inhibitor.

[2] = biological target: T2, human TLR8 (Homo sapiens, UniProt Q9NR97); experiment: TLR8 inhibition reporter assay (HEK-Blue SEAP); assay type: cell-based; conditions: HEK-Blue cells overexpressing human TLR8, R848 15.9 μM, 22 hour incubation
T2 construct: host or cells: HEK-Blue cells
T2 sequence (Q9NR97 27-1041): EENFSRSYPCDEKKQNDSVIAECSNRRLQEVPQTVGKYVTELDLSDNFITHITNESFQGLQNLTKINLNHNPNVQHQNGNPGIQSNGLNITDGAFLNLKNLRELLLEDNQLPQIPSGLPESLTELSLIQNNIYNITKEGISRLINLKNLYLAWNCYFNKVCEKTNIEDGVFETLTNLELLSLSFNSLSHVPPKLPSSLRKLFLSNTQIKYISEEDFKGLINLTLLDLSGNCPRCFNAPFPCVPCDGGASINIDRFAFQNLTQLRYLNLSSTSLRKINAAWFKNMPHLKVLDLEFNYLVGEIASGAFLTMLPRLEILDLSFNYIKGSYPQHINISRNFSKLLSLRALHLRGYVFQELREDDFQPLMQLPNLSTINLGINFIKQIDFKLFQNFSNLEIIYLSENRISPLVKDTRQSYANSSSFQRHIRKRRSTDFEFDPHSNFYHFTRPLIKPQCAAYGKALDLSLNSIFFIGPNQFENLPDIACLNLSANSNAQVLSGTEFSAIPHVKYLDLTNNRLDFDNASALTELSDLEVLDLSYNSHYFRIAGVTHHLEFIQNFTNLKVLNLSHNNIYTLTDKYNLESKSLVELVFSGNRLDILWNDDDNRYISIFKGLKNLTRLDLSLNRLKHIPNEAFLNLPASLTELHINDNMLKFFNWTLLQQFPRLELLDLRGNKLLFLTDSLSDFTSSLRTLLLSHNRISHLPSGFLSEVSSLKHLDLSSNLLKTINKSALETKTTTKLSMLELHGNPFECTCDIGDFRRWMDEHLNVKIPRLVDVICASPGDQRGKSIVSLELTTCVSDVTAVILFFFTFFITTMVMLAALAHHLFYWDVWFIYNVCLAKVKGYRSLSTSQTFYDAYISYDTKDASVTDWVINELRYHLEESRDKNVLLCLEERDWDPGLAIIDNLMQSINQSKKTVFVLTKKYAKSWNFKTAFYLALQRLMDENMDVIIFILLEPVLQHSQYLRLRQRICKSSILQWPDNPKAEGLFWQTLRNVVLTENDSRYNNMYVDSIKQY
Protocol: as §1, §2

Row | IC50 [1] [nM] | IC50 [2] [nM] | SMILES
1 | 4720 | 205 | Cc1cc2c(cc1-c1cc(C)c3ncnn3c1)[nH]c(=O)n2[C@H]1CCCN(C(=O)CN(C)C)C1 [Example 103, (S)-1-(1-(dimethylglycyl)piperidin-3-yl)-6-methyl-5-(8-methyl-[1,2,4]triazolo[1,5-a]pyridin-6-yl)-1,3-dihydro-2H-benzo[d]imidazol-2-one]
2 | 1450 | 47.6 | Cc1cc2c(cc1-c1cc(C)c3ncnn3c1)[nH]c(=O)n2[C@@H]1CCCN(C(=O)CN(C)C)C1 [Example 104, (R)-1-(1-(dimethylglycyl)piperidin-3-yl)-6-methyl-5-(8-methyl-[1,2,4]triazolo[1,5-a]pyridin-6-yl)-1,3-dihydro-2H-benzo[d]imidazol-2-one]
3 | 7940 | 318 | COc1cc(-c2cc3[nH]c(=O)n(C4CCCN(C(=O)CN(C)C)C4)c3cc2C)cn2ncnc12 (stereo not shown) [Example 105, 1-(1-(dimethylglycyl)piperidin-3-yl)-5-(8-methoxy-[1,2,4]triazolo[1,5-a]pyridin-6-yl)-6-methyl-1,3-dihydro-2H-benzo[d]imidazol-2-one]
4 | 2990 | 249 | Cc1cc(-c2cc(C)c3ncnn3c2)cc2[nH]c(=O)n(C3CCN(C(C)C)CC3)c12 [Example 107, 1-(1-isopropylpiperidin-4-yl)-7-methyl-5-(8-methyl-[1,2,4]triazolo[1,5-a]pyridin-6-yl)-1,3-dihydro-2H-benzo[d]imidazol-2-one]
5 | 1160 | 83.1 | CCN1CCC(n2c(=O)[nH]c3cc(-c4cc(C)c5ncnn5c4)cc(C)c32)CC1 [Example 108, 1-(1-ethylpiperidin-4-yl)-7-methyl-5-(8-methyl-[1,2,4]triazolo[1,5-a]pyridin-6-yl)-1,3-dihydro-2H-benzo[d]imidazol-2-one]
6 | 14300 | 541 | Cc1cc(-c2cc(C)c3ncnn3c2)cc2[nH]c(=O)n(C3CCN(CC(=O)N(C)C)CC3)c12 [Example 109, N,N-dimethyl-2-(4-(7-methyl-5-(8-methyl-[1,2,4]triazolo[1,5-a]pyridin-6-yl)-2-oxo-2,3-dihydro-1H-benzo[d]imidazol-1-yl)piperidin-1-yl)acetamide]
7 | 7820 | 4.06 | CCN1CCC[C@@H](n2c(=O)[nH]c3cc(-c4cc(OC)c5ncnn5c4)c(C(F)(F)F)cc32)C1 [Example 110, (R)-1-(1-ethylpiperidin-3-yl)-5-(8-methoxy-[1,2,4]triazolo[1,5-a]pyridin-6-yl)-6-(trifluoromethyl)-1,3-dihydro-2H-benzo[d]imidazol-2-one]
8 | 9940 | 12.6 | COc1cc(-c2cc3[nH]c(=O)n([C@@H]4CCCN(C(C)C)C4)c3cc2C(F)(F)F)cn2ncnc12 [Example 111, (R)-1-(1-isopropylpiperidin-3-yl)-5-(8-methoxy-[1,2,4]triazolo[1,5-a]pyridin-6-yl)-6-(trifluoromethyl)-1,3-dihydro-2H-benzo[d]imidazol-2-one]
9 | 12700 | 20.3 | COc1cc(-c2cc3[nH]c(=O)n([C@@H]4CCCN(CC5CCOCC5)C4)c3cc2C(F)(F)F)cn2ncnc12 [Example 112, (R)-5-(8-methoxy-[1,2,4]triazolo[1,5-a]pyridin-6-yl)-1-(1-((tetrahydro-2H-pyran-4-yl)methyl)piperidin-3-yl)-6-(trifluoromethyl)-1,3-dihydro-2H-benzo[d]imidazol-2-one]
10 | > 50000 | 113 | COc1cc(-c2cc3[nH]c(=O)n([C@@H]4CCCN(C5COC5)C4)c3cc2C(F)(F)F)cn2ncnc12 [Example 113, (R)-5-(8-methoxy-[1,2,4]triazolo[1,5-a]pyridin-6-yl)-1-(1-(oxetan-3-yl)piperidin-3-yl)-6-(trifluoromethyl)-1,3-dihydro-2H-benzo[d]imidazol-2-one]

Row | SMILES | IC50 [1] [nM] | IC50 [2] [nM]
11 | Cc1cc(-c2cc(C)c3ncnn3c2)cc2[nH]c(=O)n(C3CCN(C)CC3)c12 [Example 106, 7-methyl-5-(8-methyl-[1,2,4]triazolo[1,5-a]pyridin-6-yl)-1-(1-methylpiperidin-4-yl)-1,3-dihydro-2H-benzo[d]imidazol-2-one] | 3740 | 150

— patent US12187723B2 (BRISTOL-MYERS SQUIBB COMPANY, priority 2019, dated 2025)
